The record followed here is US10908153B2, “Pseudomonas aeruginosa inhibitor compounds” (priority 2015, dated 2021).

This test addresses T1, PscE-PscG interaction (Pseudomonas aeruginosa, UniProt P95435+Q9I317).
T1 construct: made in house; host or cells: E. coli
Put plainly: ELISA test of inhibition of the PscE-PscG interaction. The class given is binding. The following applies: for inhibition at 50 µM: 4 h, read-out: PscE-PscG at 50 μM. The protocol:
50 μL of PscG protein at 1 μM (for screening libraries) or 2.2 μM (for screening newly synthesized molecules) is incubated in a NUNC 96-well plate for 8 h at 4° C. The wells are washed three times with 200 μL of 1× PBS/0.1% Tween20®. The wells are treated overnight at 4° C. with 200 μL of a 5% milk solution in 1× PBS/0.1% Tween20®. The solution is then discarded, and the plate is drained dry.
The test is carried out as follows:
Negative control (lowest signal level): 100 μL of buffer ([…] Tris-HCl, 250 mM NaCl, pH 8.0);
Positive control (highest signal level): 50 μL of buffer and 50 μL of a test solution at 25 (library screening) or 3 μM (screening of analogue molecules) of the PscE protein;
Test of the inhibitors: 40 μL buffer, 50 μL of a solution at 25 μM (library screening) or 3 μM (screening of analogue molecules) of PscE protein and 10 μL of the solution containing the inhibitor to be tested.
The solutions are left for 4 h at room temperature.
The wells are washed three times with 200 μL of 1× PBS/0.1% Tween20®. The anti-PscE antibody diluted to 1:2,000 in 1× PBS/0.1% Tween20®, 50 μL, is added and the whole is left 2 h at room temperature. The wells are washed three times with 200 μL of 1× PBS/0.1% Tween20®. The HRP-conjugated anti-mouse antibody is diluted to 1:5,000 in 1× PBS/0.1% Tween20® and 50 μL is added and left for 2 h at room temperature. The wells are washed three times with 200 μL of 1× PBS/0.1% Tween20®.
The ELISA test is developed by adding 50 μL of TMB reagent followed by incubation for 15 minutes at room temperature in the dark. The reaction is stopped by adding 50 μL of 2N HCl. The plate is read at 450 nm.

T1 sequence (Q9I317 whole entry): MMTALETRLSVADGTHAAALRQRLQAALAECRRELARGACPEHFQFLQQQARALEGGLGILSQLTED
T1 sequence (P95435 whole entry): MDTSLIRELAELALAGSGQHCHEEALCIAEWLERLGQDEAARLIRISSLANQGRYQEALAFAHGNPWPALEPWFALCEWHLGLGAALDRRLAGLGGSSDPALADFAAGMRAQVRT

`[N-]=[N+]=NCCCCCCCCOCCCc1ccc[n+](CCCCCCCCCCOCCCc2cccnc2)c1` [molecule 29, 3-(3-(8-azidooctyloxy)propyl)-1-(10-(3-(pyridin-3-yl)propoxy)decyl)pyridinium chloride]: the inhibition at 50 µM was 24%.

On to `CC1(C)CC[C@]2(C(=O)O)CC[C@]3(C)C(=CC[C@@H]4[C@@]5(C)CC[C@H](O)[C@@](C)(CO)[C@@H]5CC[C@]43C)[C@@H]2C1` [Hederagenin, reference compound], for which, where the note is “read-out: % inhibition PscE-PscG at 50 μm”, the inhibition at 25 µM was 58%.

Turning to `[N-]=[N+]=NCCCCCCCCCCCCOCCCc1ccc[n+](CCCCCCCCCCOCCCc2cccnc2)c1` [molecule 33, 3-(3-(12-azidododecyloxy)propyl)-1-(10-(3-(pyridin-3-yl)propoxy)decyl)pyridinium chloride], the inhibition at 50 µM was found to be 54.2%. Moreover, the “inhibitory effect compared with clioquinol” value (ELISA test, 50 μM, Table 2) is “superior to clioquinol”.
